In the supplement of paper PMC4862054:

test system: BT-474; assay: normalised response (% of control), CellTox Green; higher = less cell death (100 = DMSO, 0 = benzethonium chloride kill control); conditions: incubation time: 72 h
Method in brief: (§1)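 Compound was dispensed into 384-well plates at 5 concentrations in 10-fold steps spanning a 10,000-fold range specific to that compound. Breast cancer cell lines were added as 20 µl suspension and left for 72 h before CellTox Green fluorescence (485/520 nm) and then CellTiter-Glo luminescence, read after 10 min at room temperature. Each reported value is the normalised signal at one concentration, with 0.1 % DMSO set at 100 and a positive kill control at 0 on each plate.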

Compound | normalised response
CCn1c(C(=O)N(C2CC2)C2CC2)cc2c3c(ncn3C)c(Nc3cc(C)n(C)n3)nc21 (10000 nM) | 103%
CN[C@@H](C)C(=O)N[C@H]1CN(C(=O)CC(C)C)CC[C@H]2CC[C@@H](C(=O)NC(c3ccccc3)c3ccccc3)N2C1=O [AT-406] (10000 nM) | 89.4%
CCN(CC)CCCC(C)Nc1ccnc2cc(Cl)ccc12 (centres undefined) [Chloroquine] (100000 nM) | -2.97%
CC(C)(C)c1nc(-c2cccc(NS(=O)(=O)c3c(F)cccc3F)c2F)c(-c2ccnc(N)n2)s1 [Dabrafenib] (2500 nM) | 103%
Cc1nc(C(=O)NCC(=O)O)c(O)c2ccc(Oc3ccccc3)cc12 [FG-4592] (10000 nM) | 98%
O=C(O)CNC(=O)c1c(O)c2ccccc2n(Cc2ccccc2)c1=O [IOX-2] (50000 nM) | 102%
CN(C)C(=N)NC(=N)N [Metformin] (100000 nM) | 91.1%
CN(Cc1cnc2nc(N)nc(N)c2n1)c1ccc(C(=O)N[C@@H](CCC(=O)O)C(=O)O)cc1 [Methotrexate] (50000 nM) | 93.8%
C=CCN(/C=C1/C(=O)O[C@H](COC)[C@@]2(C)C1=C(O)C(=O)C1=C2[C@H](OC(C)=O)C[C@]2(C)C(=O)CC[C@@H]12)CC=C [Sonolisib] (10000 nM) | 99.8%

test system: BT-549; assay: as above; conditions: incubation time: 72 h
Method in brief: as §1

Compound | normalised response
CN[C@@H](C)C(=O)N[C@H]1CN(C(=O)CC(C)C)CC[C@H]2CC[C@@H](C(=O)NC(c3ccccc3)c3ccccc3)N2C1=O [AT-406] (10000 nM) | 83.8%
CCN(CC)CCCC(C)Nc1ccnc2cc(Cl)ccc12 (centres undefined) [Chloroquine] (100000 nM) | 30.4%
CC(C)(C)c1nc(-c2cccc(NS(=O)(=O)c3c(F)cccc3F)c2F)c(-c2ccnc(N)n2)s1 [Dabrafenib] (2500 nM) | 94.2%
Cc1nc(C(=O)NCC(=O)O)c(O)c2ccc(Oc3ccccc3)cc12 [FG-4592] (10000 nM) | 94.7%
O=C(O)CNC(=O)c1c(O)c2ccccc2n(Cc2ccccc2)c1=O [IOX-2] (50000 nM) | 73.6%
CN(C)C(=N)NC(=N)N [Metformin] (100000 nM) | 76.3%
CN(Cc1cnc2nc(N)nc(N)c2n1)c1ccc(C(=O)N[C@@H](CCC(=O)O)C(=O)O)cc1 [Methotrexate] (50000 nM) | 103%
C=CCN(/C=C1/C(=O)O[C@H](COC)[C@@]2(C)C1=C(O)C(=O)C1=C2[C@H](OC(C)=O)C[C@]2(C)C(=O)CC[C@@H]12)CC=C [Sonolisib] (10000 nM) | 104%

test system: CAL-120; assay: as above; conditions: incubation time: 72 h
Method in brief: as §1

Compound | normalised response
CCn1c(C(=O)N(C2CC2)C2CC2)cc2c3c(ncn3C)c(Nc3cc(C)n(C)n3)nc21 (10000 nM) | 103%
CN[C@@H](C)C(=O)N[C@H]1CN(C(=O)CC(C)C)CC[C@H]2CC[C@@H](C(=O)NC(c3ccccc3)c3ccccc3)N2C1=O [AT-406] (10000 nM) | 41.2%
CCN(CC)CCCC(C)Nc1ccnc2cc(Cl)ccc12 (centres undefined) [Chloroquine] (100000 nM) | 8.39%
CC(C)(C)c1nc(-c2cccc(NS(=O)(=O)c3c(F)cccc3F)c2F)c(-c2ccnc(N)n2)s1 [Dabrafenib] (2500 nM) | 78.8%
Cc1nc(C(=O)NCC(=O)O)c(O)c2ccc(Oc3ccccc3)cc12 [FG-4592] (10000 nM) | 107%
O=C(O)CNC(=O)c1c(O)c2ccccc2n(Cc2ccccc2)c1=O [IOX-2] (50000 nM) | 101%
CN(C)C(=N)NC(=N)N [Metformin] (100000 nM) | 94.6%
CN(Cc1cnc2nc(N)nc(N)c2n1)c1ccc(C(=O)N[C@@H](CCC(=O)O)C(=O)O)cc1 [Methotrexate] (50000 nM) | 102%
C=CCN(/C=C1/C(=O)O[C@H](COC)[C@@]2(C)C1=C(O)C(=O)C1=C2[C@H](OC(C)=O)C[C@]2(C)C(=O)CC[C@@H]12)CC=C [Sonolisib] (10000 nM) | 97.4%

test system: CAL-148; assay: as above; conditions: incubation time: 72 h
Method in brief: as §1

Compound | normalised response
CCn1c(C(=O)N(C2CC2)C2CC2)cc2c3c(ncn3C)c(Nc3cc(C)n(C)n3)nc21 (10000 nM) | 93%
CN[C@@H](C)C(=O)N[C@H]1CN(C(=O)CC(C)C)CC[C@H]2CC[C@@H](C(=O)NC(c3ccccc3)c3ccccc3)N2C1=O [AT-406] (10000 nM) | 66.9%
CCN(CC)CCCC(C)Nc1ccnc2cc(Cl)ccc12 (centres undefined) [Chloroquine] (100000 nM) | 24.9%
Cc1nc(C(=O)NCC(=O)O)c(O)c2ccc(Oc3ccccc3)cc12 [FG-4592] (10000 nM) | 89.3%
O=C(O)CNC(=O)c1c(O)c2ccccc2n(Cc2ccccc2)c1=O [IOX-2] (50000 nM) | 101%
CN(C)C(=N)NC(=N)N [Metformin] (100000 nM) | 98.1%
CN(Cc1cnc2nc(N)nc(N)c2n1)c1ccc(C(=O)N[C@@H](CCC(=O)O)C(=O)O)cc1 [Methotrexate] (50000 nM) | 105%

test system: CAL-51; assay: as above; conditions: incubation time: 72 h
Method in brief: as §1

Compound | normalised response
CCn1c(C(=O)N(C2CC2)C2CC2)cc2c3c(ncn3C)c(Nc3cc(C)n(C)n3)nc21 (10000 nM) | 99.5%
CN[C@@H](C)C(=O)N[C@H]1CN(C(=O)CC(C)C)CC[C@H]2CC[C@@H](C(=O)NC(c3ccccc3)c3ccccc3)N2C1=O [AT-406] (10000 nM) | 83%
CCN(CC)CCCC(C)Nc1ccnc2cc(Cl)ccc12 (centres undefined) [Chloroquine] (100000 nM) | 28.5%
CC(C)(C)c1nc(-c2cccc(NS(=O)(=O)c3c(F)cccc3F)c2F)c(-c2ccnc(N)n2)s1 [Dabrafenib] (2500 nM) | 106%
Cc1nc(C(=O)NCC(=O)O)c(O)c2ccc(Oc3ccccc3)cc12 [FG-4592] (10000 nM) | 105%
O=C(O)CNC(=O)c1c(O)c2ccccc2n(Cc2ccccc2)c1=O [IOX-2] (50000 nM) | 84.3%
